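Interpolation was linear, between the two tested concentrations surrounding the appropriate level; five concentrations were tested over 48 hours in 96-well plates. GI50: concentration for 50% inhibition of growth.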 Active and inactive are the calls of the source. No stated cut-off is given here; in the data, active = GI50 up to about 1.1 µM and inactive = higher.
Key:
Assay in all cases: NCI-60 cell line screen, 48 h
KM12 = system: KM12
OVCAR-8 = system: OVCAR-8
ACHN = system: ACHN
UO-31 = system: UO-31
RPMI-8226 = system: RPMI-8226
CCRF-CEM = system: CCRF-CEM
NCI-H226 = system: NCI-H226
CAKI-1 = system: CAKI-1
SN12C = system: SN12C
HL-60 = system: HL-60
OVCAR-3 = system: OVCAR-3
HT-29 = system: HT-29
UACC-62 = system: UACC-62
SK-MEL-5 = system: SK-MEL-5
SF-295 = system: SF-295
HOP-92 = system: HOP-92
IGROV-1 = system: IGROV-1
LOX IMVI = system: LOX IMVI
M19-MEL = system: M19-MEL
SF-539 = system: SF-539

SMILES	GI50 (KM12)	GI50 (OVCAR-8)	GI50 (ACHN)	GI50 (UO-31)	GI50 (RPMI-8226)	GI50 (CCRF-CEM)	GI50 (NCI-H226)	GI50 (CAKI-1)	GI50 (SN12C)	GI50 (HL-60)	GI50 (OVCAR-3)	GI50 (HT-29)	GI50 (UACC-62)	GI50 (SK-MEL-5)	GI50 (SF-295)	GI50 (HOP-92)	GI50 (IGROV-1)	GI50 (LOX IMVI)	GI50 (M19-MEL)	GI50 (SF-539)
N#C[C@@H](c1nc2ccccc2s1)c1ncccc1[N+](=O)[O-]	10.6 µM (inactive)	9.06 µM (inactive)	6.07 µM (inactive)	3.99 µM (inactive)	4.9 µM (inactive)	> 10 µM (inactive)	5.55 µM (inactive)	19 µM (inactive)	4.82 µM (inactive)	> 10 µM (inactive)	2.48 µM (inactive)	8.3 µM (inactive)	3.21 µM (inactive)	3.24 µM (inactive)	4.1 µM (inactive)	1.32 µM (inactive)	5.07 µM (inactive)	4.97 µM (inactive)		
O=S(O)CCCCSSCCCCS(=O)(=O)S	67.6 µM (inactive)	37.8 µM (inactive)	72.6 µM (inactive)	51.3 µM (inactive)		13.8 µM (inactive)		> 100 µM (inactive)	71 µM (inactive)		49.2 µM (inactive)	38.6 µM (inactive)	18 µM (inactive)	14.2 µM (inactive)	35.5 µM (inactive)		> 100 µM (inactive)	27.4 µM (inactive)	12.1 µM (inactive)	98.6 µM (inactive)
COc1cc(C2c3cc4c(cc3[C@@H](Nc3cccc([N+](=O)[O-])c3)C3COC(=O)[C@H]23)OCO4)cc(OC)c1O (some centres not stated)	3.01 µM (inactive)	2.51 µM (inactive)		2.23 µM (inactive)	3.05 µM (inactive)	0.4 µM (active)	1.85 µM (inactive)	1.03 µM (active)	2.75 µM (inactive)	1.05 µM (active)	5.69 µM (inactive)	2.6 µM (inactive)	2.52 µM (inactive)	1.88 µM (inactive)	1.36 µM (inactive)	2.92 µM (inactive)	6.65 µM (inactive)	1.63 µM (inactive)	4.01 µM (inactive)	1.43 µM (inactive)
COC(=O)/C=C\n1nc(Br)c(=O)[nH]c1=O	> 100 µM (inactive)	> 100 µM (inactive)	> 100 µM (inactive)	> 100 µM (inactive)	> 100 µM (inactive)	> 100 µM (inactive)		> 100 µM (inactive)	> 100 µM (inactive)	66.4 µM (inactive)	> 100 µM (inactive)	> 100 µM (inactive)		> 100 µM (inactive)		> 100 µM (inactive)	> 100 µM (inactive)	> 100 µM (inactive)		> 100 µM (inactive)
COc1cc(S(=O)(=O)Nc2ccc(-c3csc(N4C(=O)C(C)SC4c4cccc(Oc5ccccc5)c4)n3)cc2)ccc1Cl (configuration not stated)	34.5 µM (inactive)	37.5 µM (inactive)	57.8 µM (inactive)	64.6 µM (inactive)	42.1 µM (inactive)	64.7 µM (inactive)	27.1 µM (inactive)	46 µM (inactive)	70.1 µM (inactive)	27.2 µM (inactive)	43.6 µM (inactive)	35.4 µM (inactive)	28.4 µM (inactive)	27.5 µM (inactive)	46.2 µM (inactive)	32.7 µM (inactive)	39 µM (inactive)	32.4 µM (inactive)		27.6 µM (inactive)
O=S(O)c1cc(Cl)cc(Cl)c1OCc1ccccc1	> 100 µM (inactive)		> 100 µM (inactive)	> 100 µM (inactive)		> 100 µM (inactive)			> 100 µM (inactive)	> 100 µM (inactive)	> 100 µM (inactive)	> 100 µM (inactive)	> 100 µM (inactive)					> 100 µM (inactive)	> 100 µM (inactive)	> 100 µM (inactive)
O=c1[nH]cnc2sc(=S)c3c(c12)CCC3	51.5 µM (inactive)	38.4 µM (inactive)	17.3 µM (inactive)	25.8 µM (inactive)	18 µM (inactive)	21 µM (inactive)	20.8 µM (inactive)	19.3 µM (inactive)	> 100 µM (inactive)	22.2 µM (inactive)	18.4 µM (inactive)	35.2 µM (inactive)	40.9 µM (inactive)	17.8 µM (inactive)	> 100 µM (inactive)	23.8 µM (inactive)	15.8 µM (inactive)	24.7 µM (inactive)		> 100 µM (inactive)
CC(=O)N(C(=O)CC(=O)N1N=C(C)C(/N=N/c2cccc([N+](=O)[O-])c2)C1=O)c1ccc(Cl)cc1 (configuration not stated)	> 10 µM (inactive)	> 10 µM (inactive)	> 10 µM (inactive)		> 10 µM (inactive)	> 10 µM (inactive)		> 10 µM (inactive)	> 10 µM (inactive)	> 10 µM (inactive)	> 10 µM (inactive)	> 10 µM (inactive)	> 10 µM (inactive)	> 10 µM (inactive)	> 10 µM (inactive)	> 10 µM (inactive)	> 10 µM (inactive)	> 10 µM (inactive)		> 10 µM (inactive)
CCOC(=O)C(Cc1c(-c2[nH]c3ccccc3c2CC(NC(=O)CNC(C)=O)C(=O)OCC)[nH]c2ccccc12)NC(=O)CNC(C)=O (configuration not stated)	> 100 µM (inactive)			77.4 µM (inactive)	> 100 µM (inactive)	> 100 µM (inactive)		> 100 µM (inactive)	56 µM (inactive)		42.3 µM (inactive)	> 100 µM (inactive)	74.3 µM (inactive)	29.9 µM (inactive)	> 100 µM (inactive)	26.3 µM (inactive)	> 100 µM (inactive)			
Clc1ccc(N/N=C(\c2ccccc2)c2ccccn2)nc1	0.348 µM (active)	< 0.01 µM (active)	< 0.01 µM (active)	0.0494 µM (active)	0.147 µM (active)	< 0.01 µM (active)	0.0891 µM (active)	< 0.01 µM (active)	< 0.01 µM (active)	< 0.01 µM (active)	< 0.0121 µM (active)	< 0.01 µM (active)	0.214 µM (active)	0.0578 µM (active)	0.323 µM (active)	0.101 µM (active)	0.0239 µM (active)			0.622 µM (active)
O=S(O)c1cc(Cl)cc(Cl)c1O	> 100 µM (inactive)		> 100 µM (inactive)	> 100 µM (inactive)		> 100 µM (inactive)			> 100 µM (inactive)	> 100 µM (inactive)	> 100 µM (inactive)	> 100 µM (inactive)	> 100 µM (inactive)					> 100 µM (inactive)	> 100 µM (inactive)	> 100 µM (inactive)
CC1CC=CC(O)C1 (configuration not stated)	> 100 µM (inactive)	> 100 µM (inactive)		> 100 µM (inactive)	> 100 µM (inactive)	> 100 µM (inactive)	> 100 µM (inactive)		> 100 µM (inactive)	> 100 µM (inactive)	> 100 µM (inactive)	> 100 µM (inactive)	> 100 µM (inactive)	> 100 µM (inactive)	> 100 µM (inactive)	> 100 µM (inactive)	> 100 µM (inactive)	> 100 µM (inactive)	> 100 µM (inactive)	> 100 µM (inactive)

From ChEMBL document CHEMBL1201862, “PubChem BioAssay data set” (2004)
